Consider 23 molecules from PubChem BioAssay AID192 (DTP/NCI, 2004).

Where “and” joins values, the source holds several entries; their conditions need not be identical. Identical values can stand only once. Toxic doses and inconclusive results are not listed.

The test system of the experiment is BDF1 mice, B16 melanoma ip, median survival T/C. Description: NCI In Vivo Anticancer Drug Screen. Data for tumor model B16 Melanoma (intraperitoneal) in B6D2F1 (BDF1) mice. Conditions: endpoint: median survival time, higher = longer survival. How it is done: The antitumor activity of compounds was measured in mice bearing transplantable tumors. Survival or tumor size were measured and the results are expressed as the measurement made in the treated group (T) divided by the measurement made in the vehicle treated control group (C). The tumor model used in this assay is B16 Melanoma (intraperitoneal) in B6D2F1 (BDF1) mice

[1] abbreviates: dose: 25.0 mg/kg/injection, schedule: Q01DX009 (ip), vehicle: saline.
Setting [2] is: dose: 50.0 mg/kg/injection, schedule: Q01DX009 (ip), vehicle: saline.
[3] abbreviates: dose: 100.0 mg/kg/injection, schedule: Q01DX009 (ip), vehicle: saline.
The mark [4] stands for this setting: dose: 50.0 mg/kg/injection, schedule: Q01DX009 (ip), vehicle: saline with Tween-80.
[5] abbreviates: dose: 100.0 mg/kg/injection, schedule: Q01DX009 (ip), vehicle: Klucel (hydroxypropylcellulose) (HPC).
The mark [6] stands for this setting: dose: 200.0 mg/kg/injection, schedule: Q01DX009 (ip), vehicle: Klucel (hydroxypropylcellulose) (HPC).
Setting [7] is: dose: 400.0 mg/kg/injection, schedule: Q01DX009 (ip), vehicle: Klucel (hydroxypropylcellulose) (HPC).
[8] abbreviates: dose: 6.25 mg/kg/injection, schedule: Q01DX009 (ip), vehicle: saline with Tween-80.
The mark [9] stands for this setting: dose: 12.5 mg/kg/injection, schedule: Q01DX009 (ip), vehicle: saline with Tween-80.
The mark [10] stands for this setting: dose: 25.0 mg/kg/injection, schedule: Q01DX009 (ip), vehicle: saline with Tween-80.
Setting [11] is: dose: 100.0 mg/kg/injection, schedule: Q01DX009 (ip), vehicle: saline with Tween-80.
Where [12] appears, read: dose: 12.5 mg/kg/injection, schedule: Q01DX009 (ip), vehicle: Klucel (hydroxypropylcellulose) (HPC).
[13] abbreviates: dose: 25.0 mg/kg/injection, schedule: Q01DX009 (ip), vehicle: Klucel (hydroxypropylcellulose) (HPC).
Setting [14] is: dose: 50.0 mg/kg/injection, schedule: Q01DX009 (ip), vehicle: Klucel (hydroxypropylcellulose) (HPC).
Where [15] appears, read: dose: 200.0 mg/kg/injection, schedule: Q01DX009 (ip), vehicle: saline.
Where [16] appears, read: dose: 400.0 mg/kg/injection, schedule: Q01DX009 (ip), vehicle: saline.
Setting [17] is: dose: 1.25 mg/kg/injection, schedule: Q01DX009 (ip), vehicle: saline with Tween-80.
Where [18] appears, read: dose: 2.5 mg/kg/injection, schedule: Q01DX009 (ip), vehicle: saline with Tween-80.
Where [19] appears, read: dose: 5.0 mg/kg/injection, schedule: Q01DX009 (ip), vehicle: saline with Tween-80.

Turning to `CCN(CC)CCNC1CCCCC1`, the T/C is, setting by setting: under setting [1], 102 % of control; under setting [2], 112 % of control; under setting [3], 98 % of control.
Consider `CCOC(=O)N1CCN(CCCCCOc2ccccc2C2CCCCC2)CC1`, for which the T/C under setting [4] was 103 % of control.
As for `COc1ccc(COC=O)cc1`, the T/C was 100 % of control under setting [5], 109 % of control under setting [6] and 106 % of control under setting [7].
Regarding `O=C(CO)c1ccc([N+](=O)[O-])cc1`, the T/C (dose: 3.12 mg/kg/injection, schedule: Q01DX009 (ip), vehicle: saline with Tween-80) is 97 % of control and 100 % of control; the T/C under setting [8] was 103 % of control; the T/C under setting [9] is 99 % of control and 106 % of control; the T/C under setting [10] is 100 % of control and 104 % of control; the T/C under setting [4] was 96 % of control and 108 % of control; the T/C under setting [11] is 93 % of control and 100 % of control.
Take `Oc1ccc(/C=N\Nc2ccccn2)c(O)c1`: the T/C by setting is: under setting [12], 90 % of control; under setting [13], 102 % of control; under setting [14], 98 % of control; under setting [5], 115 % of control; under setting [6], 124 % of control.
With `O=c1cc2oc3c(O)c(O)ccc3c3c4ccccc4c(=O)c(c1)c23`, the T/C by setting is: (dose: 12.5 mg/kg/injection, schedule: Q01DX009 (ip), vehicle: saline) 103 % of control; under setting [1], 90 % of control.
`ClC(Cl)(Cl)c1nc2nccnc2[nH]1`: the T/C is 102 % of control (dose: 3.13 mg/kg/injection, schedule: Q01DX009 (ip), vehicle: saline with Tween-80); 94 % of control under setting [8]; 105 % of control under setting [9]; 91 % of control under setting [10].
As for `Cc1ccc(NC(=O)Oc2ccc(Br)cc2Br)c([N+](=O)[O-])c1`, the T/C under setting [9] is 97 % of control, the T/C under setting [10] was 92 % of control and the T/C under setting [4] is 86 % of control.
With `CC(=O)CCCc1ccccc1`, the T/C under setting [3] is 112 % of control, the T/C under setting [15] was 116 % of control and the T/C under setting [16] was 98 % of control.
In the case of `O=C(NCCO)Nc1ccc(Cl)c(Cl)c1`, the T/C (dose: 90.0 mg/kg/injection, schedule: Q01DX009 (ip), vehicle: other) is 102 % of control; the T/C (dose: 100.0 mg/kg/injection, schedule: Q01DX009 (ip), vehicle: other) was 100 % of control; the T/C (dose: 200.0 mg/kg/injection, schedule: Q01DX009 (ip), vehicle: other) was 94 % of control; the T/C (dose: 300.0 mg/kg/injection, schedule: Q01DX009 (ip), vehicle: other) is 87 % of control; the T/C (dose: 400.0 mg/kg/injection, schedule: Q01DX009 (ip), vehicle: other) was 90 % of control.
With `O=C(NC(CSC(c1ccccc1)c1ccccc1)C(=O)O)OCc1ccccc1` (centres undefined), the T/C is 100 % of control under setting [13] and 100 % of control under setting [14].
As to `Cc1ccc2c(ccc3c[n+]4ccccc4c(C)c32)c1`, the T/C by setting is: under setting [17], 95 % of control; under setting [18], 95 % of control and 102 % of control; under setting [19], 90 % of control and 102 % of control.
`Clc1nc(SC2=NCCN2)c2[nH]cnc2n1`: the T/C reads like this: under setting [17], 93 % of control; under setting [18], 97 % of control; under setting [19], 101 % of control; (dose: 10.0 mg/kg/injection, schedule: Q01DX009 (ip), vehicle: saline with Tween-80) 101 % of control and 103 % of control.
With `CC(C)C[NH-].CC(C)C[NH-].O.O.[Cl][Pt+2][Cl]`, the T/C reads like this: (dose: 10.0 mg/kg/injection, schedule: Q01DX009 (ip), vehicle: other) 151 % of control; (dose: 30.0 mg/kg/injection, schedule: Q01DX009 (ip), vehicle: other) 160 % of control; (dose: 40.0 mg/kg/injection, schedule: Q01DX009 (ip), vehicle: other) 214 % of control; (dose: 50.0 mg/kg/injection, schedule: Q01DX009 (ip), vehicle: other) 169 % of control.
Turning to `OC(C(c1ccccc1)c1ccccn1)(C(F)(F)F)C(F)(F)F` (centres undefined), the T/C was 112 % of control (dose: 66.0 mg/kg/injection, schedule: Q04DX003 (ip), vehicle: saline with Tween-80); 110 % of control under setting [11]; 117 % of control (dose: 100.0 mg/kg/injection, schedule: Q04DX003 (ip), vehicle: saline with Tween-80); 115 % of control (dose: 150.0 mg/kg/injection, schedule: Q04DX003 (ip), vehicle: saline with Tween-80); 112 % of control (dose: 200.0 mg/kg/injection, schedule: Q01DX009 (ip), vehicle: saline with Tween-80); 105 % of control (dose: 400.0 mg/kg/injection, schedule: Q01DX009 (ip), vehicle: saline with Tween-80).
On to `O=C(Nc1ccccc1)Nc1nccs1`, for which the T/C is 91 % of control under setting [12]; 93 % of control and 113 % of control under setting [13]; 98 % of control and 102 % of control under setting [14]; 93 % of control and 99 % of control under setting [5]; 94 % of control and 100 % of control under setting [6].
As for `NC(=S)N/N=C/c1nccc2ccccc12`, the T/C reads like this: (dose: 6.25 mg/kg/injection, schedule: Q01DX009 (ip), vehicle: saline) 153 % of control; (dose: 9.4 mg/kg/injection, schedule: Q01DX009 (ip), vehicle: saline with Tween-80) 105 % of control and 122 % of control; (dose: 9.4 mg/kg/injection, schedule: Q04DX003 (ip), vehicle: saline) 122 % of control; (dose: 18.8 mg/kg/injection, schedule: Q01DX009 (ip), vehicle: saline with Tween-80) 118 % of control and 122 % of control and 124 % of control; under setting [1], 172 % of control; under setting [2], 196 % of control. The T/C by setting is: under setting [3], 155 % of control; (dose: 150.0 mg/kg/injection, schedule: Q04DX003 (ip), vehicle: saline) 152 % of control.
Consider `CC1(C)N=C(N)N=C(N)N1c1ccc(Cl)c(Cl)c1`, for which the T/C reads like this: (dose: 6.25 mg/kg/injection, schedule: Q01DX009 (ip), vehicle: Klucel (hydroxypropylcellulose) (HPC)) 117 % of control; (dose: 6.25 mg/kg/injection, schedule: Q04DX003 (ip), vehicle: Klucel (hydroxypropylcellulose) (HPC)) 102 % of control; (dose: 12.5 mg/kg/injection, schedule: Q04DX003 (ip), vehicle: Klucel (hydroxypropylcellulose) (HPC)) 103 % of control; (dose: 25.0 mg/kg/injection, schedule: Q04DX003 (ip), vehicle: Klucel (hydroxypropylcellulose) (HPC)) 114 % of control; (dose: 50.0 mg/kg/injection, schedule: Q04DX003 (ip), vehicle: Klucel (hydroxypropylcellulose) (HPC)) 116 % of control.
On to `COC1CC(C)C(OC)c2cc(O)cc(c2O)NC(=O)/C(C)=C/C=C\C(C)C(OC(N)=O)/C(C)=C\C(C)C1OC` (centres undefined), for which the T/C by setting is: (dose: 2.5 mg/kg/injection, schedule: Q01DX009 (ip), vehicle: Klucel (hydroxypropylcellulose) (HPC)) 176 % of control and 187 % of control; (dose: 5.0 mg/kg/injection, schedule: Q01DX009 (ip), vehicle: Klucel (hydroxypropylcellulose) (HPC)) 177 % of control and 208 % of control; (dose: 5.0 mg/kg/injection, schedule: Q01DX009 (ip), vehicle: saline + alcohol) 242 % of control.
Take `CCCCn1c(=S)[nH]c2ccccc2c1=O`: the T/C is, setting by setting: under setting [5], 98 % of control; under setting [6], 96 % of control; under setting [7], 98 % of control.
On to `Cc1ccc(OC(=O)/C=C/C(=O)Oc2ccc(C)cc2)cc1`, for which the T/C reads like this: (dose: 75.0 mg/kg/injection, schedule: Q04DX003 (ip), vehicle: Klucel (hydroxypropylcellulose) (HPC)) 89 % of control; (dose: 150.0 mg/kg/injection, schedule: Q04DX003 (ip), vehicle: Klucel (hydroxypropylcellulose) (HPC)) 94 % of control; (dose: 300.0 mg/kg/injection, schedule: Q04DX003 (ip), vehicle: Klucel (hydroxypropylcellulose) (HPC)) 100 % of control.
Consider `OCc1ccc[n+](CCc2c[nH]c3ccccc23)c1`, for which the T/C is 102 % of control under setting [10], 99 % of control under setting [4] and 102 % of control under setting [11].
As for `CC1CNC(=S)O1` (centres undefined), the T/C runs as follows: under setting [1], 97 % of control; under setting [2], 91 % of control; under setting [3], 91 % of control; under setting [15], 89 % of control; under setting [16], 91 % of control.
